Data: US20240376084A1, “INHIBITORS OF ALPHA-HEMOLYSIN OF STAPHYLOCOCCUS AUREUS” (Helmholtz-Zentrum Fur Infektionsforschung GmbH, priority 2021, published 2024)

Legend:
[1] = biological target: hemolysin alpha from Staphylococcus aureus (Staphylococcus aureus, UniProt P09616); assay: cell-based
[2] = biological target: S. aureus Alpha hemolysin (Staphylococcus aureus, UniProt P09616); assay: cell-based
S. aureus Alpha hemolysin, sequence (P09616 27-319 limits assumed): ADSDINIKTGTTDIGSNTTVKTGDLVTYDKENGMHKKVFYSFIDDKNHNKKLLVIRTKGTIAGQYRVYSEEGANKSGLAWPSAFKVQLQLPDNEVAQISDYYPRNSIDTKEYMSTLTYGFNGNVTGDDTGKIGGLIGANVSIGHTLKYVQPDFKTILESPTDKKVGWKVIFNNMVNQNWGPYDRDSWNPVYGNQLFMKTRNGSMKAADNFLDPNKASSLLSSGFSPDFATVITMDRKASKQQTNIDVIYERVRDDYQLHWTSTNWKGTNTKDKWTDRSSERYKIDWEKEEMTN

hemolysin alpha from Staphylococcus aureus, sequence (P09616 27-319 limits assumed): as above

Row | Structure (SMILES) | IC50 [1] [nM] | EC50 ([2]; A549-LDH Assay activity) [nM] | EC50 [1] [nM] | EC50 ([2]; LDH Assay EC50) [nM]
1 | Cc1cc2[nH]c(=O)c(=O)[nH]c2cc1S(=O)(=O)Nc1ccc(-c2cccc(Cl)c2)c(Cl)c1 [Compound 26, N-(2,3′-dichloro-[1,1′-biphenyl]-4-yl)-7-methyl-2,3-dioxo-1,2,3,4-tetrahydroquinoxaline-6-sulfonamide] | < 30 | 30 to 100 |  | 
2 | O=c1[nH]c2ccc(S(=O)(=O)Nc3ccc(OC(F)(F)F)cc3)cc2[nH]c1=O [drawing 469 (R^2 = H), reference compound] |  |  | 290 | 241
3 | Cc1cc(C2CC2)ccc1NS(=O)(=O)c1cc2[nH]c(=O)c(=O)[nH]c2cc1C [Compound 110, N-(4-cyclopropyl-2-methylphenyl)-7-methyl-2,3-dioxo-1,2,3,4-tetrahydroquinoxaline-6-sulfonamide] | 100 to 1000 | 30 to 100 |  | 
4 | Cc1cc(NS(=O)(=O)c2cc3[nH]c(=O)c(=O)[nH]c3cc2Cl)cc(C)c1-c1ccccc1 [Compound 106, 7-chloro-N-(2,6-dimethyl-[1,1′-biphenyl]-4-yl)-2,3-dioxo-1,2,3,4-tetrahydroquinoxaline-6-sulfonamide] | 100 to 1000 | 30 to 100 |  | 
5 | O=c1[nH]c2cc(F)c(S(=O)(=O)Nc3ccc(-c4ccc(F)cc4)c(Cl)c3)cc2[nH]c1=O [Compound 18, N-(2-chloro-4′-fluoro-[1,1′-biphenyl]-4-yl)-7-fluoro-2,3-dioxo-1,2,3,4-tetrahydroquinoxaline-6-sulfonamide] | < 30 | 30 to 100 |  | 
6 | Cc1cc2[nH]c(=O)c(=O)[nH]c2cc1S(=O)(=O)Nc1ccc(-c2ccc(F)cc2)c(N(C)C)c1 [Compound 255, N-[3-(dimethylamino)-4-(4-fluorophenyl)phenyl]-7-methyl-2,3-dioxo-1,4-dihydroquinoxaline-6-sulfonamide] |  | 100 to 1000 | 100 to 1000 | 
7 | CCc1cc2[nH]c(=O)c(=O)[nH]c2cc1S(=O)(=O)Nc1ccc(C2CC2)cc1 [Compound 67, N-(4-cyclopropylphenyl)-7-ethyl-2,3-dioxo-1,2,3,4-tetrahydroquinoxaline-6-sulfonamide] | 30 to 100 | 30 to 100 |  | 
8 | Cc1cc2[nH]c(=O)c(=O)[nH]c2cc1S(=O)(=O)Nc1ccc(-c2ccc3c(c2)NC(=O)CO3)c(C(F)(F)F)c1 [Compound 367, 7-methyl-2,3-dioxo-N-[4-(3-oxo-4H-1,4-benzoxazin-6-yl)-3-(trifluoromethyl)phenyl]-1,4-dihydroquinoxaline-6-sulfonamide] |  | 30 to 100 | < 30 | 
9 | Cc1cc2[nH]c(=O)c(=O)[nH]c2cc1S(=O)(=O)Nc1ccc(-c2cc(F)c3c(c2)NCCO3)c(Cl)c1 [Compound 357, N-[3-chloro-4-(8-fluoro-3,4-dihydro-2H-1,4-benzoxazin-6-yl)phenyl]-7-methyl-2,3-dioxo-1,4-dihydroquinoxaline-6-sulfonamide] |  | 100 to 1000 | < 30 | 
10 | O=c1[nH]c2cc(F)c(S(=O)(=O)Nc3ccc(-c4ccncc4)c(Cl)c3)cc2[nH]c1=O [Compound 150, N-(3-chloro-4-(pyridin-4-yl)phenyl)-7-fluoro-2,3-dioxo-1,2,3,4-tetrahydroquinoxaline-6-sulfonamide] | 100 to 1000 | 100 to 1000 |  | 
11 | COc1ccc(-c2ccc(NS(=O)(=O)c3cc4[nH]c(=O)c(=O)[nH]c4cc3C)cc2Cl)cc1 [Compound 246, N-[3-chloro-4-(4-methoxyphenyl)phenyl]-7-methyl-2,3-dioxo-1,4-dihydroquinoxaline-6-sulfonamide] |  | 30 to 100 | < 30 | 
12 | Cc1ccccc1-c1c(C)cc(NS(=O)(=O)c2cc3[nH]c(=O)c(=O)[nH]c3cc2C)cc1C [Compound 125, 7-methyl-2,3-dioxo-N-(2,2′,6-trimethyl-[1,1′-biphenyl]-4-yl)-1,2,3,4-tetrahydroquinoxaline-6-sulfonamide] | 100 to 1000 | 1000 to 6000 |  | 
